Measurements as given in ChEMBL document CHEMBL1697731, “Cheminformatics analysis of assertions mined from literature that describe drug-induced liver injury in different species” (Chem Res Toxicol, 2010).

Assays:
[1] = test system: Hepatotoxicity; assay: Literature-mined compound from Fourches et al multi-species drug-induced liver injury (DILI) dataset, effect in non-rodents
[2] = test system: Hepatotoxicity; assay: Literature-mined compound from Fourches et al multi-species drug-induced liver injury (DILI) dataset, effect in humans; conditions: human
[3] = test system: Hepatotoxicity; assay: Literature-mined compound from Fourches et al multi-species drug-induced liver injury (DILI) dataset, effect in rodents; conditions: rodentia

Row | SMILES | Hepatotoxicity [1] | Hepatotoxicity [2] | Hepatotoxicity [3] | Hepatotoxicity ([1]; Liver) | Hepatotoxicity ([2]; Liver) | Hepatotoxicity ([3]; Liver)
1 | CO[C@@]1(NC(=O)C(C(=O)O)c2ccc(O)cc2)C(=O)N2C(C(=O)O)=C(CSc3nnnn3C)CO[C@@H]21 (stereo partly drawn) [MOXALACTAM] | no drug-induced liver injury reported | drug-induced liver injury reported | no drug-induced liver injury reported | – | – | –
2 | COc1c(N2C[C@@H]3CCCN[C@@H]3C2)c(F)cc2c(=O)c(C(=O)O)cn(C3CC3)c12 [MOXIFLOXACIN] | no drug-induced liver injury reported | drug-induced liver injury reported | no drug-induced liver injury reported | – | – | –
3 | CC(=O)Oc1cc(C(C)C)c(OCCN(C)C)cc1C [MOXISYLYTE] | no drug-induced liver injury reported | drug-induced liver injury reported | no drug-induced liver injury reported | – | – | –
4 | COc1nc(C)nc(Cl)c1N=C1NCCN1 [MOXONIDINE] | no drug-induced liver injury reported | no drug-induced liver injury reported | drug-induced liver injury reported | – | – | –
5 | CC(c1ccc(Cl)c(Cl)c1)N1N=C(N)CC1=O (stereo not drawn) [MUZOLIMINE] | no drug-induced liver injury reported | drug-induced liver injury reported | no drug-induced liver injury reported | – | – | –
6 | COc1c(C)c2c(c(O)c1C/C=C(\C)CCC(=O)OCCN1CCOCC1)C(=O)OC2 [MYCOPHENOLATE MOFETIL] | no drug-induced liver injury reported | drug-induced liver injury reported | no drug-induced liver injury reported | – | – | –
7 | COc1c(C)c2c(c(O)c1C/C=C(\C)CCC(=O)O)C(=O)OC2 [MYCOPHENOLIC ACID] | no drug-induced liver injury reported | drug-induced liver injury reported | drug-induced liver injury reported | – | – | –
8 | COc1ccc2cc(CCC(C)=O)ccc2c1 [NABUMETONE] | no drug-induced liver injury reported | no drug-induced liver injury reported | drug-induced liver injury reported | – | – | –
9 | NC(=O)c1ccc[n+]([C@@H]2O[C@H](COP(=O)([O-])OP(=O)(O)OC[C@H]3O[C@@H](n4cnc5c(N)ncnc54)[C@H](O)[C@@H]3O)[C@@H](O)[C@H]2O)c1 [NADIDE] | no drug-induced liver injury reported | no drug-induced liver injury reported | drug-induced liver injury reported | – | – | –
10 | CC(C)(C)NCC(O)COc1cccc2c1CC(O)C(O)C2 (stereo not drawn) [NADOLOL] | no drug-induced liver injury reported | drug-induced liver injury reported | no drug-induced liver injury reported | – | – | –
11 | CC(C)C[C@H](NC(=O)[C@@H](Cc1ccc2ccccc2c1)NC(=O)[C@H](Cc1ccc(O)cc1)NC(=O)[C@H](CO)NC(=O)[C@H](Cc1c[nH]c2ccccc12)NC(=O)[C@H](Cc1c[nH]cn1)NC(=O)[C@@H]1CCC(=O)N1)C(=O)N[C@@H](CCCNC(=N)N)C(=O)N1CCC[C@H]1C(=O)NCC(N)=O [NAFARELIN] | no drug-induced liver injury reported | drug-induced liver injury reported | no drug-induced liver injury reported | – | – | –
12 | CCn1cc(C(=O)O)c(=O)c2ccc(C)nc21 [NALIDIXIC ACID] | no drug-induced liver injury reported | drug-induced liver injury reported | drug-induced liver injury reported | – | – | –
13 | C=CCN1CC[C@]23c4c5ccc(O)c4O[C@H]2[C@@H](O)C=C[C@H]3[C@H]1C5 [NALORPHINE] | no drug-induced liver injury reported | no drug-induced liver injury reported | drug-induced liver injury reported | – | – | –
14 | C=CCN1CC[C@]23c4c5ccc(O)c4O[C@H]2C(=O)CC[C@@]3(O)[C@H]1C5 [NALOXONE] | no drug-induced liver injury reported | no drug-induced liver injury reported | drug-induced liver injury reported | – | – | –
15 | O=C1CC[C@@]2(O)[C@H]3Cc4ccc(O)c5c4[C@@]2(CCN3CC2CC2)[C@H]1O5 [NALTREXONE] | no drug-induced liver injury reported | drug-induced liver injury reported | drug-induced liver injury reported | – | – | –
16 | CCCCCCCCCC(=O)O[C@H]1CC[C@H]2[C@@H]3CCC4=CC(=O)CC[C@@H]4[C@H]3CC[C@]12C [NANDROLONE DECANOATE] | no drug-induced liver injury reported | no drug-induced liver injury reported | drug-induced liver injury reported | – | – | –
17 | COc1ccc2cc([C@H](C)C(=O)O)ccc2c1 [NAPROXEN] | – | – | – | no drug-induced liver injury reported | drug-induced liver injury reported | drug-induced liver injury reported
18 | C[C@@H]1C/C=C/C=C/C=C/C=C/[C@H](O[C@@H]2O[C@H](C)[C@@H](O)[C@H](N)[C@@H]2O)C[C@@H]2O[C@](O)(C[C@@H](O)C[C@H]3O[C@@H]3/C=C/C(=O)O1)C[C@H](O)[C@H]2C(=O)O [NATAMYCIN] | drug-induced liver injury reported | no drug-induced liver injury reported | no drug-induced liver injury reported | – | – | –

Row | SMILES | Hepatotoxicity [1] | Hepatotoxicity [2] | Hepatotoxicity [3] | Hepatotoxicity ([1]; Liver) | Hepatotoxicity ([2]; Liver) | Hepatotoxicity ([3]; Liver)
19 | CCc1nn(CCCN2CCN(c3cccc(Cl)c3)CC2)c(=O)n1CCOc1ccccc1 [NEFAZODONE] | no drug-induced liver injury reported | drug-induced liver injury reported | no drug-induced liver injury reported | – | – | –
20 | CN(C)C(=O)Oc1cccc([N+](C)(C)C)c1.[Br-] [NEOSTIGMINE BROMIDE] | no drug-induced liver injury reported | no drug-induced liver injury reported | drug-induced liver injury reported | – | – | –
21 | CCN[C@@H]1C[C@H](N)[C@@H](O[C@H]2OC(CN)=CC[C@H]2N)[C@H](O)[C@H]1O[C@H]1OC[C@](C)(O)[C@H](NC)[C@H]1O [NETILMICIN] | no drug-induced liver injury reported | drug-induced liver injury reported | drug-induced liver injury reported | – | – | –
22 | Cc1ccnc2c1NC(=O)c1cccnc1N2C1CC1 [NEVIRAPINE] | no drug-induced liver injury reported | drug-induced liver injury reported | no drug-induced liver injury reported | – | – | –
23 | NC(=O)c1cccnc1 [NIACINAMIDE] | no drug-induced liver injury reported | drug-induced liver injury reported | drug-induced liver injury reported | – | – | –
24 | O=C(CCNNC(=O)c1ccncc1)NCc1ccccc1 [NIALAMIDE] | no drug-induced liver injury reported | no drug-induced liver injury reported | drug-induced liver injury reported | – | – | –
25 | CO[C@]12C[C@@H](COC(=O)c3cncc(Br)c3)CN(C)[C@@H]1Cc1cn(C)c3cccc2c13 [NICERGOLINE] | no drug-induced liver injury reported | no drug-induced liver injury reported | drug-induced liver injury reported | – | – | –
26 | O=C(OCC(COC(=O)c1cccnc1)(COC(=O)c1cccnc1)COC(=O)c1cccnc1)c1cccnc1 [NICERITROL] | drug-induced liver injury reported | no drug-induced liver injury reported | no drug-induced liver injury reported | – | – | –
27 | O=C(NCCO[N+](=O)[O-])c1cccnc1 [NICORANDIL] | no drug-induced liver injury reported | no drug-induced liver injury reported | drug-induced liver injury reported | – | – | –
28 | CN1CCC[C@H]1c1cccnc1 [NICOTINE] | – | – | – | no drug-induced liver injury reported | drug-induced liver injury reported | drug-induced liver injury reported
29 | COC(=O)C1=C(C)NC(C)=C(C(=O)OC)C1c1ccccc1[N+](=O)[O-] [NIFEDIPINE] | drug-induced liver injury reported | drug-induced liver injury reported | drug-induced liver injury reported | – | – | –
30 | O=C(O)c1cccnc1Nc1cccc(C(F)(F)F)c1 [NIFLUMIC ACID] | no drug-induced liver injury reported | no drug-induced liver injury reported | drug-induced liver injury reported | – | – | –
31 | CC1CS(=O)(=O)CCN1/N=C/c1ccc([N+](=O)[O-])o1 (stereo not drawn) [NIFURTIMOX] | – | – | – | no drug-induced liver injury reported | no drug-induced liver injury reported | drug-induced liver injury reported
32 | O=C1CN(/N=C/c2ccc([N+](=O)[O-])o2)C(=O)N1CO [NIFURTOINOL] | no drug-induced liver injury reported | drug-induced liver injury reported | no drug-induced liver injury reported | – | – | –
33 | CC1(C)NC(=O)N(c2ccc([N+](=O)[O-])c(C(F)(F)F)c2)C1=O [NILUTAMIDE] | – | – | – | no drug-induced liver injury reported | drug-induced liver injury reported | drug-induced liver injury reported
34 | COCCOC(=O)C1=C(C)NC(C)=C(C(=O)OC(C)C)C1c1cccc([N+](=O)[O-])c1 (stereo not drawn) [NIMODIPINE] | no drug-induced liver injury reported | drug-induced liver injury reported | drug-induced liver injury reported | – | – | –
35 | O=C1NCCN1c1ncc([N+](=O)[O-])s1 [NIRIDAZOLE] | no drug-induced liver injury reported | no drug-induced liver injury reported | drug-induced liver injury reported | – | – | –
36 | COC(=O)C1=C(C)NC(C)=C(C(=O)OCC(C)C)C1c1ccccc1[N+](=O)[O-] (stereo not drawn) [NISOLDIPINE] | drug-induced liver injury reported | drug-induced liver injury reported | drug-induced liver injury reported | – | – | –
